Measured values taken from patent US20240116985A1, “STAPLED PEPTIDES AND METHODS THEREOF” (priority 2020, published 2024).
Like-named read-outs stand apart in the source and are kept apart here.

What was measured:
[1] = biological target: T1, full-length beta-Catenin (Uniprot ID P35222) (Homo sapiens, UniProt P35222); experiment: Fluorescence polarization IC50 (beta-catenin / 5FAM-TCF4 10-53 competition); format: binding
T1 construct: 10 nM full-length beta-Catenin (Uniprot ID P35222)
T1 sequence (P35222 1-781): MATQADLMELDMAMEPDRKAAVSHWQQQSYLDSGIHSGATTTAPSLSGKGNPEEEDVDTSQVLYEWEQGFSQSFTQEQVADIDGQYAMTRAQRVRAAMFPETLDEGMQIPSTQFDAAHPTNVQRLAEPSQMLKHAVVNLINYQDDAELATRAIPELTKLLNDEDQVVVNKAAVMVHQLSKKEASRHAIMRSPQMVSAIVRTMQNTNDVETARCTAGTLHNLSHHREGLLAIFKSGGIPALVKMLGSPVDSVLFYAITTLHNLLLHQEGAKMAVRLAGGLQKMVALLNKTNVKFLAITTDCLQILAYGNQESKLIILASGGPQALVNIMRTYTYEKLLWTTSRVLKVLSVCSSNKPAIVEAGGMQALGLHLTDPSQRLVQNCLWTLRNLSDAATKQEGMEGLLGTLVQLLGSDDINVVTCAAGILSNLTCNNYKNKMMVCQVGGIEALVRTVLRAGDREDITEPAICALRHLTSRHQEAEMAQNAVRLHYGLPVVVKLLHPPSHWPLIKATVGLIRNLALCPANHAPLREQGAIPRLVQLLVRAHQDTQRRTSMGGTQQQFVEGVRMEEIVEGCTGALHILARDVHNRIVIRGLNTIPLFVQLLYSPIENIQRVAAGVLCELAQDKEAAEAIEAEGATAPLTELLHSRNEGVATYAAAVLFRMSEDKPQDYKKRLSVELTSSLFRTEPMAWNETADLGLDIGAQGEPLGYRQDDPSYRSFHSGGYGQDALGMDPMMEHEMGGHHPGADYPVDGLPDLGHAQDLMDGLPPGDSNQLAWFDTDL

[2] = biological target: T2, full-length B-Catenin (Uniprot ID P35222) (Homo sapiens, UniProt P35222); experiment: Alphascreen binding assay (beta-catenin / biotin-TCF4 10-53)
T2 construct: 65 nM full-length B-Catenin (Uniprot ID P35222)
T2 sequence (P35222 1-781): T1 sequence (P35222 1-781)
How it was run: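 Final concentrations: 65 nM full-length human β-catenin plus 10 nM biotin-TCF4(10-53) peptide, test peptide 3-fold from 10 uM to 5 nM, preincubated 15 min at 20 °C in Tris pH 8.0/250 mM NaCl buffer. Nickel-chelate AlphaScreen donor/acceptor beads then added for 60 min in the dark; duplicate reads fitted to 1:1 binding model with Hill slope.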

[3] = CHI Log D procedure; format: physicochemical; conditions: for CHI Log D: pH 7.4; for chromatographic logD: pH 7.4, CHI Log D
[4] = fluorescence polarization, beta-catenin, read-out: FP EC50
[5] = Table E2-1, read-out: beta-Catenin FP IC50

Row | Compound | IC50 [1, 4] [nM] | EC50 [2] [nM] | CHI Log D [3] | IC50 [1, 5] [nM] | chromatographic logD [3]
1 | CC[C@H](C)[C@@H]1NC(=O)[C@H](CC(=O)O)NC(=O)[C@]2(CC=CCCCC3(CCCC=CCOC(=O)N(C)CCC[C@@](C)(C(=O)N[C@@H](Cc4ccccc4)C(=O)N[C@@H](Cc4c[nH]c5ccccc45)C(=O)N[C@@H](Cc4c[nH]cn4)C(N)=O)NC(=O)[C@H](CCC(N)=O)NC(=O)[C@H](Cc4ccccc4)NC(=O)[C@H](C)NC(=O)[C@H](C)NC(=O)[C@H](CC(=O)O)NC(=O)[C@H](CC(=O)O)NC3=O)NC1=O)CCCN2C(C)=O (stereo partly drawn) [I-189, Ac-PL3-Asp-Ile-B5-Asp-Asp-Ala-Ala-Phe-Gln-SeN-Phe-Trp-His-NH2] | 1600 | 156 | 1.611 | – | –
2 | CC[C@H](C)[C@@H]1NC(=O)[C@H](CC(=O)O)NC(=O)[C@]2(CC=CCCCC3(CCCC=CCCCCCC[C@@](C)(C(=O)N[C@@H](Cc4ccccc4)C(=O)N[C@@H](Cc4c[nH]c5ccccc45)C(N)=O)NC(=O)[C@H](CCC(N)=O)NC(=O)[C@H](Cc4ccccc4)NC(=O)[C@H](C)NC(=O)[C@H](C)NC(=O)[C@H](CCC(=O)O)NC(=O)[C@H](CC(=O)O)NC3=O)NC1=O)CCCN2C(C)=O (stereo partly drawn) [I-191, Ac-PL3-Asp-Ile-B5-Asp-Glu-Ala-Ala-Phe-Gln-S8-Phe-Trp-NH2] | 1660 | 240 | 2.412 | 1660 | –
3 | CC[C@H](C)[C@@H]1NC(=O)[C@H](CC(=O)O)NC(=O)[C@]2(CC=CCCCC3(CCCC=CCCCCCC[C@@](C)(C(=O)N[C@@H](Cc4ccccc4)C(=O)N[C@@H](Cc4c[nH]c5ccccc45)C(N)=O)NC(=O)[C@H](CCC(N)=O)NC(=O)[C@H](Cc4ccccc4)NC(=O)[C@H](C)NC(=O)[C@H](C)NC(=O)[C@H](CCC(=O)O)NC(=O)[C@H](CC(=O)O)NC3=O)NC1=O)CCCN2C(C)=O (stereo partly drawn) [I-192, Ac-PL3-Asp-Ile-B5-Asp-Glu-Ala-Ala-Phe-Gln-S8-Phe-Trp-NH2] | 1660 | 240 | 2.412 | – | –
4 | CC(=O)N1CCC[C@]12CC=CCCCC1(CCCC=CCCCCCC[C@@](C)(C(=O)N[C@@H](Cc3ccccc3)C(=O)N[C@@H](Cc3c[nH]c4ccccc34)C(=O)N[C@@H](CCC(N)=O)C(N)=O)NC(=O)[C@H](C(C)C)NC(=O)[C@H](Cc3cccc(C)c3)NC(=O)[C@H](C)NC(=O)[C@H](C)NC(=O)[C@H](CCC(=O)O)NC(=O)[C@H](CC(=O)O)NC1=O)NC(=O)[C@H](C)NC(=O)[C@H](CC(=O)O)NC2=O (stereo partly drawn) [I-207, Ac-PL3-Asp-Ala-B5-Asp-Glu-Ala-Ala-3MeF-Val-S8-Phe-Trp-Gln-NH2] | 1750 | 143 | 2.054 | 1750 | –
5 | CC(=O)N1CCC[C@]12CC=CCCCC1(CCCC=CCCCCCC[C@@](C)(C(=O)N[C@@H](Cc3ccccc3)C(=O)N[C@@H](Cc3c[nH]c4ccccc34)C(=O)N[C@@H](CCC(N)=O)C(N)=O)NC(=O)[C@H](C(C)C)NC(=O)[C@H](Cc3cccc(C(F)(F)F)c3)NC(=O)[C@H](C)NC(=O)[C@H](C)NC(=O)[C@H](CC(=O)O)NC(=O)[C@H](CC(=O)O)NC1=O)NC(=O)[C@H](C)NC(=O)[C@H](CC(=O)O)NC2=O (stereo partly drawn) [I-238, Ac-PL3-Asp-Ala-B5-Asp-Asp-Ala-Ala-3F3MeF-Val-S8-Phe-Trp-Gln-NH2] | 1590 | 267 | 2.074 | 1590 | –
6 | CC(=O)N1CCC[C@]12CC=CCCCC1(CCCC=CCCCCCC[C@@](C)(C(=O)N[C@@H](Cc3ccccc3)C(=O)N[C@@H](Cc3c[nH]c4ccccc34)C(=O)N[C@@H](CCC(N)=O)C(N)=O)NC(=O)[C@H](C(C)C)NC(=O)[C@H](Cc3cccc(C(F)(F)F)c3)NC(=O)[C@H](C)NC(=O)[C@H](C)NC(=O)[C@H](CC(=O)O)NC(=O)[C@H](CC(=O)O)NC1=O)NC(=O)[C@H](C)NC(=O)[C@H](CC(=O)O)NC2=O (stereo partly drawn) [I-239, Ac-PL3-Asp-Ala-B5-Asp-Asp-Ala-Ala-3F3MeF-Val-S8-Phe-Trp-Gln-NH2] | 1590 | 267 | 2.074 | – | –
7 | CC(=O)N1CCC[C@]12CC=CCCCC1(CCCC=CCCCCCC[C@@](C)(C(=O)N[C@@H](Cc3cccc4ccccc34)C(=O)N[C@@H](Cc3c[nH]c4ccccc34)C(=O)N[C@@H](CCC(N)=O)C(N)=O)NC(=O)[C@H](C(C)C)NC(=O)[C@H](Cc3ccccc3)NC(=O)[C@H](C)NC(=O)[C@H](C)NC(=O)[C@H](CC(=O)O)NC(=O)[C@H](CC(=O)O)NC1=O)NC(=O)[C@H](C)NC(=O)[C@H](CC(=O)O)NC2=O (stereo partly drawn) [I-276, Ac-PL3-Asp-Ala-B5-Asp-Asp-Ala-Ala-Phe-Val-S8-1NapA-Trp-Gln-NH2] | 3430 | 329 | 2.207 | 3430 | –
8 | CC(=O)N1CCC[C@]12CC=CCCCC1(CCCC=CCCCCCC[C@@](C)(C(=O)N[C@@H](Cc3c[nH]cn3)C(=O)N[C@@H](Cc3c[nH]c4ccccc34)C(=O)N[C@@H](CCC(N)=O)C(N)=O)NC(=O)[C@H](C(C)C)NC(=O)[C@H](Cc3ccccc3)NC(=O)[C@H](C)NC(=O)[C@H](C)NC(=O)[C@H](CC(=O)O)NC(=O)[C@H](CC(=O)O)NC1=O)NC(=O)[C@H](C)NC(=O)[C@H](CC(=O)O)NC2=O (stereo partly drawn) [I-285, Ac-PL3-Asp-Ala-B5-Asp-Asp-Ala-Ala-Phe-Val-S8-His-Trp-Gln-NH2] | – | 246 | – | 5000 | 1.49

Compounds with a lower EC50 [2], results first:

Row | IC50 [1, 4] [nM] | EC50 [2] [nM] | CHI Log D [3] | IC50 [1, 5] [nM] | chromatographic logD [3] | Compound
9 | 696 | 94 | 1.736 | 696 | – | CC[C@H](C)[C@@H]1NC(=O)[C@H](CC(=O)O)NC(=O)[C@]2(CC=CCCCC3(CCCC=CCOC(=O)N(C)CCC[C@@](C)(C(=O)N[C@@H](Cc4ccccc4)C(=O)N[C@@H](Cc4c[nH]c5ccccc45)C(=O)N[C@@H](Cc4c[nH]cn4)C(N)=O)NC(=O)[C@H](CCC(N)=O)NC(=O)[C@H](Cc4ccccc4)NC(=O)[C@H](C)NC(=O)[C@H](C)NC(=O)[C@H](CC(=O)O)NC(=O)[C@H](CC(=O)O)NC3=O)NC1=O)CCCN2C(C)=O (stereo partly drawn) [I-190, Ac-PL3-Asp-Ile-B5-Asp-Asp-Ala-Ala-Phe-Gln-SeN-Phe-Trp-His-NH2]
10 | 533 | 76 | 2.462 | 533 | – | CC[C@H](C)[C@@H]1NC(=O)[C@H](CC(=O)O)NC(=O)[C@]2(CC=CCCCC3(CCCC=CCCCCCC[C@@](C)(C(=O)N[C@@H](Cc4ccccc4)C(=O)N[C@@H](Cc4c[nH]c5ccccc45)C(N)=O)NC(=O)[C@H](CCC(N)=O)NC(=O)[C@H](Cc4ccccc4)NC(=O)[C@H](C)NC(=O)[C@H](C)NC(=O)[C@H](CCC(=O)O)NC(=O)[C@H](CC(=O)O)NC3=O)NC1=O)CCCN2C(C)=O (stereo partly drawn) [I-193, Ac-PL3-Asp-Ile-B5-Asp-Glu-Ala-Ala-Phe-Gln-S8-Phe-Trp-NH2]
11 | – | 105 | – | 1010 | 2.33 | CC[C@H](C)[C@@H]1NC(=O)[C@H](CC(=O)O)NC(=O)[C@]2(CC=CCCCC3(CCCC=CCCCCCC[C@@](C)(C(=O)N[C@@H](Cc4ccccc4)C(=O)N[C@@H](Cc4c[nH]c5ccccc45)C(=O)N[C@@H](C)C(N)=O)NC(=O)[C@H](CCC(N)=O)NC(=O)[C@H](Cc4ccccc4)NC(=O)[C@H](C)NC(=O)[C@H](C)NC(=O)[C@H](CCC(=O)O)NC(=O)[C@H](CC(=O)O)NC3=O)NC1=O)CCCN2C(C)=O (stereo partly drawn) [I-194, Ac-PL3-Asp-Ile-B5-Asp-Glu-Ala-Ala-Phe-Gln-S8-Phe-Trp-Ala-NH2]
12 | 1960 | 90 | 2.012 | 1960 | – | COc1ccc(C[C@@H]2NC(=O)[C@H](C)NC(=O)[C@H](C)NC(=O)[C@H](CCC(=O)O)NC(=O)[C@H](CC(=O)O)NC(=O)C3(CCCC=CCCCCCC[C@@](C)(C(=O)N[C@@H](Cc4ccccc4)C(=O)N[C@@H](Cc4c[nH]c5ccccc45)C(=O)N[C@@H](CCC(N)=O)C(N)=O)NC(=O)[C@H](C(C)C)NC2=O)CCCC=CC[C@]2(CCCN2C(C)=O)C(=O)N[C@@H](CC(=O)O)C(=O)N[C@@H](C)C(=O)N3)cc1 (stereo partly drawn) [I-217, Ac-PL3-Asp-Ala-B5-Asp-Glu-Ala-Ala-MeTyr-Val-S8-Phe-Trp-Gln-NH2]
13 | 2860 | 131 | 2.074 | 2860 | – | CC(=O)N1CCC[C@]12CC=CCCCC1(CCCC=CCCCCCC[C@@](C)(C(=O)N[C@@H](Cc3ccccc3)C(=O)N[C@@H](Cc3c[nH]c4ccccc34)C(=O)N[C@@H](CCC(N)=O)C(N)=O)NC(=O)[C@H](C(C)C)NC(=O)[C@H](Cc3cc(F)cc(F)c3)NC(=O)[C@H](C)NC(=O)[C@H](C)NC(=O)[C@H](CCC(=O)O)NC(=O)[C@H](CC(=O)O)NC1=O)NC(=O)[C@H](C)NC(=O)[C@H](CC(=O)O)NC2=O (stereo partly drawn) [I-219, Ac-PL3-Asp-Ala-B5-Asp-Glu-Ala-Ala-35FF-Val-S8-Phe-Trp-Gln-NH2]
